We go through seven molecules from publication PMC7051831 (ACS chemical biology, 2019).

Each structure is given as a SMILES string. Entries after “also recorded” stand apart in the source; their conditions may differ. Read-outs that look alike come from different tables or passages of the source.

For data set [1], the target named is T1, interleukin-1β (IL-1β) (Homo sapiens, UniProt P01584). Nature of the data set: ethanol titration under standard bulk conditions compared with RM titration.
Data set [2] deals with T1, interleukin-1β (IL-1β). Format: binding. To be noted: IL-1β in LDAO/10MAG reverse micelles; for extent of binding across the protein surface (in words): Figure 1.
A short description of data set [3]: alkane/water partitioning by simple NMR method. To be noted: alkane (pentane)/water partitioning. Format: physicochemical.
The conditions of data set [4]: cited from earlier work.

T1 sequence (P01584 117-269): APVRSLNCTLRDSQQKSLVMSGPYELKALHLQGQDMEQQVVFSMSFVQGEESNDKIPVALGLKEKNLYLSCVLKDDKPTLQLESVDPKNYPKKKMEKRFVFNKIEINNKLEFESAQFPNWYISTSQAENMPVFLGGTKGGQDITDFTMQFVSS

For the molecule `CCO` [ethanol], on interleukin-1β (IL-1β) [1], the “binding in RMs compared with bulk (in words)” value is “binds slightly more weakly to the protein in RMs than in bulk”. Moreover, on interleukin-1β (IL-1β) [2], the “binding affinity (in words)” value is “more specific and with a relatively higher affinity”; the “extent of binding across the protein surface (in words)” value (shortened to “extent”) is reported as “binding is limited to fewer sites”. Further, the “binding affinity (in words)” value on interleukin-1β (IL-1β) [2] (listed as Ethanol) was “relatively high binding affinity within a narrow Kd range”.

For `CC#N` [acetonitrile], in data set [3], the “fraction of molecules retained in the RM” value is “over one-third”. Also, on interleukin-1β (IL-1β) [2], the “binding affinity (in words)” value was “more diffuse and weak”; the “extent” value is given as “relatively sparse binding across the protein surface”. The “binding affinity (in words)” value at interleukin-1β (IL-1β) [2] (listed as Acetonitrile) is “relatively weak binding affinities”.

On to `CNC(C)=O` [N-methylacetamide], for which, at interleukin-1β (IL-1β) [2], the “binding affinity (in words)” value is “relatively weak binding affinities; also recorded: more diffuse and weak”; the “extent” value is recorded as “relatively sparse binding across the protein surface”.

Consider `CN` [methylammonium], for which the “extent” value on interleukin-1β (IL-1β) [2] is given as “bind at a larger number of sites”.

Consider `CCCCCCCCCCCC[N+](C)(C)[O-]` [LDAO], for which the pKa in data set [4] is reported as ~ 5.

Turning to `c1cncnc1` [pyrimidine], in data set [3], the “fraction of molecules retained in the RM” value was “over one-third”. Also, the “extent” value at interleukin-1β (IL-1β) [2] is on record as “bind at a larger number of sites”.

Take `c1c[nH]cn1` [imidazole]: at interleukin-1β (IL-1β) [2], the “binding affinity (in words)” value is “more specific and with a relatively higher affinity”; the “extent” value was “bind at a larger number of sites”.
